Our source for the TGI and GI50 values is PubChem BioAssay (NCI).

Some test systems named below: DMS 273 small cell lung; P388/ADR leukemia; M19-MEL melanoma; DMS 114 small cell lung; MDA-MB-231 breast; LXFL 529 NSCLC; PC-3 prostate; 786-0 renal.
Test in all cases: NCI tumour cell line growth inhibition, 48 h

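Compound exposure: 48 hours, 5 concentrations, 96-well plates. GI50: concentration for 50% inhibition of growth. TGI: total growth inhibition.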

Regarding `CC1(C)CC23C4COC(=O)C2CCC1C3CC4=O` (centres undefined), the figures for the TGI with DMS 273 small cell lung, in the assay with P388/ADR leukemia and in the assay on M19-MEL melanoma were 71 µM, 84.5 µM and 40.7 µM, respectively.

`COC1=C2CC(C)CC(OC)C(O)C(C)/C=C(\C)C(OC(N)=O)C(OC)/C=C\C=C(/C)C(=O)NC(=C(C=NC(C)(C)C)C1=O)C2=O` (centres undefined): the TGI with DMS 273 small cell lung was 11.9 µM; with P388/ADR leukemia it was 62.5 µM; with M19-MEL melanoma it was 15.6 µM; with DMS 114 small cell lung, 3.82 µM.

`CC[C@]1(O)C[C@H]2CN(CCc3c([nH]c4ccccc34)[C@@](C(=O)OC)(c3cc4c(cc3OC)N(C=O)[C@H]3[C@@](O)(C(=O)OC)[C@H](OC(C)=O)[C@]5(CC)C=CCN6CC[C@]43[C@@H]65)C2)C1`: the TGI with DMS 273 small cell lung came to 3.13 µM; with P388/ADR leukemia, 35.5 µM; in the assay on M19-MEL melanoma it was 169 µM; with LXFL 529 NSCLC it was 7.81 µM; in the assay with DMS 114 small cell lung, 0.56 µM. The GI50 in the assay on MDA-MB-231 breast is 0.00138 µM.

For the molecule `COc1cc2c(cc1OC)-c1cc3ccccc3c[n+]1CC2`, the TGI in the assay with MDA-MB-231 breast and in the assay on PC-3 prostate was over 100 µM each time.

In the assay on PC-3 prostate, `O=C1OC(c2ccccc2)=N/C1=C\c1cccnc1` yielded a TGI of over 100 µM.

On to `N/C(=N\N=C/c1ccccc1O)NO`, for which the TGI with DMS 273 small cell lung was 28.7 µM; in the assay on P388/ADR leukemia, 10.8 µM; in the assay with M19-MEL melanoma, over 100 µM; in the assay on DMS 114 small cell lung, 30.7 µM.

Regarding `CS(=O)(=O)c1ccc(/C=N/NC(N)=S)cc1`, the TGI in the assay with 786-0 renal, with MDA-MB-231 breast and in the assay on PC-3 prostate was over 100 µM throughout.

`O=C1OC[C@@H]2[C@@H](O)CCCCCN12`: the TGI in the assay on MDA-MB-231 breast and in the assay with PC-3 prostate was over 100 µM in each case.

As to `O=C(Nc1cccc(-n2ccc3c(NC(=O)c4ccccc4)nccc32)c1)c1ccc(N2CCOCC2)c(C(F)(F)F)c1`, the GI50 with MDA-MB-231 breast was 0.127 µM; in the assay on PC-3 prostate it was 0.0538 µM. Moreover, the TGI with MDA-MB-231 breast is 3.42 µM; in the assay on PC-3 prostate, over 100 µM.
